8 compounds from patent US11014904B2, “1,2,4-triazine-3-amine derivative, preparation method therefor, and use thereof in medicine” (Jiangsu Hengrui Medicine Co., Ltd., priority 2017, dated 2021) can be followed below.

What is called IC50 is the concentration that inhibits the measured activity by half. A higher IC50 goes with a need for much substance.

For the assay, the target named is T1, adenosine A2b receptor (A2bR) (Homo sapiens, UniProt P29275).
T1 construct: expressed in transfected cells; host or cells: CHO-K1
T1 sequence (P29275 1-332): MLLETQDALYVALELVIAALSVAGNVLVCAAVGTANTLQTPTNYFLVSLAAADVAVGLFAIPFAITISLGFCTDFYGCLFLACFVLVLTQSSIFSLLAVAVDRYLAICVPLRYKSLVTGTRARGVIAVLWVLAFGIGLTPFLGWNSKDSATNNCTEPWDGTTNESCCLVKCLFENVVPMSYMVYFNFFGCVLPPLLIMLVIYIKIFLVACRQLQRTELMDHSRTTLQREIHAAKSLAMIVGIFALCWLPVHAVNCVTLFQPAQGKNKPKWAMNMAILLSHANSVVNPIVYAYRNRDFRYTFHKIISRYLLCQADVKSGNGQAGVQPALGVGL
Briefly: Inhibition of the adenosine A2b receptor cAMP signaling pathway in CHO-K1/A2bR cells (HTRF). The format is cell-based. Conditions: ethyl carbazole 1 μM, Table 2. The source says: Determination of the inhibition activity of the compounds of the present invention on the adenosine A2a receptor (A2aR) cAMP signaling pathway, the adenosine A2b receptor (A2bR) cAMP signaling pathway, the adenosine A1 receptor (A1R) cAMP signaling pathway and the adenosine A3 receptor (A3R) cAMP signaling pathway.
The inhibition activity of the compounds of the present invention on the adenosine A2a receptor (A2aR) cAMP signaling pathway, the adenosine A2b receptor cAMP signaling pathway, the adenosine A1 receptor cAMP signaling pathway and the adenosine A3 receptor cAMP signaling pathway was determined by the following method. The experimental method is briefly described as follows:
2.2 Adenosine A2b Receptor
CHO-K1/A2bR cells were cultured in DMEM/F12 medium containing 10% fetal bovine serum and 1 mg/ml G418. The cells were digested with the cell separation buffer during the experiment. The cells were resuspended in the balanced salt buffer containing 20 mM HEPES and 0.1% bovine serum albumin and counted, and the cell density was adjusted to 10^6 cells/ml. In the 384-well plate, each well was added with 5 μl of cell suspension, and 2.5 μl of test compound (4× concentration) formulated with the balanced salt buffer containing 20 mM HEPES, 0.1% bovine serum albumin, 54 μM rolipram and 2.7 U/ml adenosine deaminase, and the plate was incubated at room temperature for 30 minutes. Each well was then added with 2.5 μl of […] (4× concentration) (Torcis, 1691/10) formulated with the balanced salt buffer containing 20 mM HEPES, 0.1% bovine serum albumin, 54 μM rolipram and 2.7 U/ml adenosine deaminase, and the plate was incubated at room temperature for 30 minutes. The final concentrations of the compounds were: 100000, 10000, 1000, 100, 10, 1, 0.1 and 0 nM. The final concentration of […] was 1 μM. Intracellular cAMP concentration was detected with the cAMP dynamic 2 kit. cAMP-d2 and Anti-cAMP-Eu-Cryptate were diluted respectively with the cAMP lysis buffer at a ratio of 1:4. Each well was added with 5 μl of diluted cAMP-d2, followed by addition of 5 μl of diluted Anti-cAMP-Eu-Cryptate, and the plate was incubated at room temperature in the dark for 1 hour. The HTRF signal values were read by the PHERAstar multi-function microplate reader.
Background: TR-FRET usually uses a lanthanide donor and a delayed reading to cut background.

On to `Nc1nnc(-c2ccc3ncccc3c2)c(-c2ccccc2)n1` [Example 3, 5-Phenyl-6-(quinolin-6-yl)-1,2,4-triazin-3-amine], for which the IC50 was found to be 47 nM.

In the case of `Cc1ncnc2ccc(-c3nnc(N)nc3-c3ccccc3)cc12` [Example 15, 6-(4-Methylquinazolin-6-yl)-5-phenyl-1,2,4-triazin-3-amine], the 50% inhibitory concentration (IC50) amounted to 7 nM. In turn, `Cc1ccnc2c(F)cc(-c3nnc(N)nc3-c3ccccc3)cc12` [Example 16, 6-(8-Fluoro-4-methylquinolin-6-yl)-5-phenyl-1,2,4-triazin-3-amine] had an IC50 of 18 nM. With `Cc1ccnc2ccc(-c3nnc(N)nc3-c3ccccc3F)cc12` [Example 17, 5-(2-Fluorophenyl)-6-(4-methylquinolin-6-yl)-1,2,4-triazin-3-amine] the figure was 22 nM; with `Cc1ncnc2ccc(-c3nnc(N)nc3-c3ccc(F)cc3)cc12` [Example 19, 5-(4-Fluorophenyl)-6-(4-methylquinazolin-6-yl)-1,2,4-triazin-3-amine], 25 nM; with `[2H]C([2H])([2H])c1ccnc2ccc(-c3nnc(N)nc3-c3ccc(F)cc3)cc12` [Example 22, 5-(4-Fluorophenyl)-6-[4-(trideuteromethyl)-6-quinolinyl]-1,2,4-triazin-3-amine], 7 nM. The compound `Cc1ncnc2c(F)cc(-c3nnc(N)nc3-c3ccccc3)cc12` [Example 45, 6-(8-Fluoro-4-methylquinazolin-6-yl)-5-phenyl-1,2,4-triazin-3-amine] came in with a half-maximal inhibitory concentration (IC50) of 25 nM. Turning to `[2H]C([2H])([2H])c1ncnc2ccc(-c3nnc(N)nc3-c3ccc(F)cc3)cc12` [Example 52, 5-(4-Fluorophenyl)-6-(4-(methyl-d3)quinazolin-6-yl)-1,2,4-triazin-3-amine], the IC50 is 14 nM.
